Measured values: PMC11551755, “Structure-based discovery of first inhibitors targeting the helicase activity of human PIF1” (Nucleic Acids Research, 2024)

Experiments:
[1] = molecular target: T1, FLhPIF1 (full length human PIF1) (Homo sapiens, UniProt Q9H611); assay: radiometric strand displacement helicase assay, no pre-incubation; type: biochemical; conditions: for inhibition at 1000 µM: 1 mM single point, gel-based DNA unwinding assay, four repeats (S4 n=3); for IC50: 0.0078–2 mM compound, 10 nM FLhPIF1, 0.1 nM DNA substrate, n = 3, read-out: IC50 for inhibition of FLhPIF1 helicase activity; for fold increase in inhibition at 1 mM relative to compound 1: 1 mM single point helicase screen
T1 construct: Full length human PIF1 (FLhPIF1) was expressed and purified as a His-SUMO fusion; His-SUMO (cleaved yes); made in house; 'following similar protocols' to hPIF1HD (ArcticExpress BL21(DE3) E. coli)
T1 sequence (Q9H611 1-641): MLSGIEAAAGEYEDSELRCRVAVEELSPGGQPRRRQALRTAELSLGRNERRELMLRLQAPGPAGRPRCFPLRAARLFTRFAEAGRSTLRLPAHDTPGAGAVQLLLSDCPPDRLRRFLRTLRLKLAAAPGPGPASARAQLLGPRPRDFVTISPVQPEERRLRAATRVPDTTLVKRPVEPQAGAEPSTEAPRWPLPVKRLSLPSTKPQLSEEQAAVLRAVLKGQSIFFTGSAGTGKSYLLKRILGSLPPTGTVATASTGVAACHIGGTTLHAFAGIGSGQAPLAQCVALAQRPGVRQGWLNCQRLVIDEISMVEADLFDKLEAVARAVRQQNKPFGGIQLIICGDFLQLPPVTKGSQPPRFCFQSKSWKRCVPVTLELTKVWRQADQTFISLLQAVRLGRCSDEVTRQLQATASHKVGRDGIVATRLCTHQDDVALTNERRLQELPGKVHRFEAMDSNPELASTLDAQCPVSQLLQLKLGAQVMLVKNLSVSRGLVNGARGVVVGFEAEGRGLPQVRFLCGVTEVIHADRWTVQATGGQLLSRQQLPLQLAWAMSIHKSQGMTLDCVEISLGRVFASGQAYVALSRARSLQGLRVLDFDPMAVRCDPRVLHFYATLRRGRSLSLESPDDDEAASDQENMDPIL
Description: Helicase activity was assayed using a radiometric strand displacement assay employing a partially single- and double-stranded substrate generated by annealing two oligonucleotides: 5′-(T)55-[…] and 5′-[…], as described previously ([19],[28]). […] SMIs (100 mM stocks in DMSO) were assayed at up to 2 mM without pre-incubation with FLhPIF1, unless otherwise stated. […] Dried gels were exposed to phosphorimaging plates (Fujifilm) for imaging and quantification (Fuji FLA3000, image gauge V3.3 software). IC50 values were analysed by non-linear regression (variable slope) using GraphPad Prism.

FLhPIF1 = molecular target: T2, FLhPIF1 (Homo sapiens, UniProt Q9H611); assay: helicase assay after pre-incubation of SMI with FLhPIF1; type: biochemical; conditions: for pre-incubation time-course, inhibition of unwinding: 0–3 h pre-incubation, 100 nM FLhPIF1, 100 μM SMI, n = 4; for effect of pre-incubation on inhibition of unwinding: 100 μM SMI with 100 nM FLhPIF1, 1 h at 22°C, then 1:10 dilution, compared to no pre-incubation; for IC50: 2 h pre-incubation at 22°C with 100 nM FLhPIF1, then 1:10 dilution into helicase assay, read-out: IC50 for dsDNA unwinding by FLhPIF1 following pre-incubation
T2 construct: Full length human PIF1 (FLhPIF1) was expressed and purified as a His-SUMO fusion; His-SUMO (cleaved yes); made in house; 'following similar protocols' to hPIF1HD (ArcticExpress BL21(DE3) E. coli)
T2 sequence (Q9H611 1-641): T1 sequence (Q9H611 1-641)
Description: Helicase activity was assayed using a radiometric strand displacement assay employing a partially single- and double-stranded substrate generated by annealing two oligonucleotides: 5′-(T)55-[…] and 5′-[…], as described previously ([19],[28]). The reaction buffer was 20 mM HEPES–NaOH pH 7.5, 20 mM NaCl, 5.5 mM MgCl2, 5 mM ATP, 1 mM DTT and 0.1 mg/ml BSA. SMIs (100 mM stocks in DMSO) were assayed at up to 2 mM without pre-incubation with FLhPIF1, unless otherwise stated. Reactions (0.1 nM substrate) were incubated at 37°C for 20 min, followed by addition of 0.2 volumes of 120 mM EDTA, 0.6% (w/v) SDS, 60% (v/v) glycerol and 0.1% (w/v) bromophenol blue before resolution of products by polyacrylamide gel electrophoresis (8%, 19:1 acrylamide:bis-acrylamide), 1× TBE (90 mM Tris–borate/2 mM EDTA, pH 8.3 with 0.05% (w/v) SDS buffer). Dried gels were exposed to phosphorimaging plates (Fujifilm) for imaging and quantification (Fuji FLA3000, image gauge V3.3 software). IC50 values were analysed by non-linear regression (variable slope) using GraphPad Prism.
First, we screened inhibitory activity of the SMIs listed in Table 1, following incubation of 100 nM FLhPIF1 with 100 μM SMI for 1 h at 22°C in the absence of substrates (ATP and DNA), before a 1:10 dilution into helicase reactions. […] Next, compounds 2, 5, 6 and 11, along with 4 and 1D were selected for analysis in a pre-incubation time-course (100 nM FLhPIF1, 100 μM SMI), up to 3 h before assaying helicase activity.
In parallel, IC50 values for inhibition of human UPF1 (hUPF1) helicase activity by the SMIs were also determined under the same conditions. UPF1-like SF1B helicases are the most closely related family of helicases to PIF1, with significant structural and mechanistic similarity ([52]).
Figure 6. SMI IC50 for dsDNA unwinding determined following pre-incubation. SMIs (0.0078–2 mM SMI) were incubated for 2 h at 22°C (100 nM FLhPIF1 or hUPF1) before dilution (1:10) in the standard helicase assay (0.1 nM DNA substrate). For 1D and 6, structures, electrophoresis of FLhPIF1 reaction product and graphs for IC50 value determination are shown. The graphed data include the activity of SMIs towards hUPF1 and IC50 values obtained are given. See Supplementary Figure S14 for the complete data set. TEXT PRINTED IN THE PICTURE: 1D: IC50 (μM): PIF1: 978 ± 221; IC50 (μM): UPF1: N.D. | 6: IC50 (μM): PIF1: 79.4 ± 16; IC50 (μM): UPF1: 1750 ± 426

CC(=O)c1ccc(-c2csc(N)n2)cc1 [Compound 2]
inhibition at 1000 µM [1]: 79.1 ± 5.2% | IC50 ([1]; no pre-incubation): 165 ± 75 µM | pre-incubation time-course, inhibition of unwinding (FLhPIF1): increasing inhibition with increasing time of pre-incubation | effect of pre-incubation on inhibition of unwinding (FLhPIF1): significantly enhanced inhibitory activity | IC50 (FLhPIF1): 65 ± 25 µM

N#Cc1ccc(-c2csc(N)n2)cc1 [Compound 5]
inhibition at 1000 µM [1]: 84 ± 4.1% | IC50 ([1]; no pre-incubation): 105 ± 6 µM | pre-incubation time-course, inhibition of unwinding (FLhPIF1): increasing inhibition with increasing time of pre-incubation | effect of pre-incubation on inhibition of unwinding (FLhPIF1): significantly enhanced inhibitory activity | IC50 (FLhPIF1): 67.4 ± 20 µM

Nc1nc(-c2ccc(C(=O)c3ccccc3)cc2)cs1 [Compound 6]
inhibition at 1000 µM [1]: 82.3 ± 6.6% | IC50 ([1]; no pre-incubation): 36 ± 7 µM | fold improvement of helicase IC50 compared to progenitor 1F ([1]; no pre-incubation): 30 fold | pre-incubation time-course, inhibition of unwinding (FLhPIF1): increasing inhibition with increasing time of pre-incubation | effect of pre-incubation on inhibition of unwinding (FLhPIF1): significantly enhanced inhibitory activity | IC50 (FLhPIF1): 79.4 ± 16 µM

CC(=O)Nc1ccc(-c2csc(N)n2)cc1-c1ccc(C)cc1 [Compound 10]
inhibition of FLhPIF1 helicase activity in 1 mM single-point screen ([1]; 1 mM): strongly inhibited the protein | fold increase in inhibition at 1 mM relative to compound 1 [1]: up to 6.5 fold | inhibition at 1000 µM [1]: 80.9 ± 5.5% | IC50 ([1]; no pre-incubation): 174 ± 7 µM | effect of pre-incubation on inhibition of unwinding (FLhPIF1): significantly enhanced inhibitory activity

CC(=O)Nc1ccc(-c2csc(N)n2)cc1C1=CCNCC1 [Compound 11]
fold increase in inhibition at 1 mM relative to compound 1 [1]: up to 6.5 fold | inhibition at 1000 µM [1]: 84.8 ± 3.4% | IC50 ([1]; no pre-incubation): 188 ± 8 µM | pre-incubation time-course, inhibition of unwinding (FLhPIF1): increasing inhibition with increasing time of pre-incubation | effect of pre-incubation on inhibition of unwinding (FLhPIF1): significantly enhanced inhibitory activity | IC50 (FLhPIF1): 109 ± 47 µM
